Tests used:
MMP-2 = target: T1, MMP-2 (Homo sapiens, UniProt P08253); assay: Quantitative fluorescence assay for matrix metalloproteinases (cleavage of Mca-Pro-Leu-Gly-Leu-Dpa-Ala-Arg-NH2); assay type: biochemical
T1 construct: endogenous in cells; host or cells: cultured human dermal fibroblasts (secreted into conditioned medium)
T1 sequence (P08253 110-660): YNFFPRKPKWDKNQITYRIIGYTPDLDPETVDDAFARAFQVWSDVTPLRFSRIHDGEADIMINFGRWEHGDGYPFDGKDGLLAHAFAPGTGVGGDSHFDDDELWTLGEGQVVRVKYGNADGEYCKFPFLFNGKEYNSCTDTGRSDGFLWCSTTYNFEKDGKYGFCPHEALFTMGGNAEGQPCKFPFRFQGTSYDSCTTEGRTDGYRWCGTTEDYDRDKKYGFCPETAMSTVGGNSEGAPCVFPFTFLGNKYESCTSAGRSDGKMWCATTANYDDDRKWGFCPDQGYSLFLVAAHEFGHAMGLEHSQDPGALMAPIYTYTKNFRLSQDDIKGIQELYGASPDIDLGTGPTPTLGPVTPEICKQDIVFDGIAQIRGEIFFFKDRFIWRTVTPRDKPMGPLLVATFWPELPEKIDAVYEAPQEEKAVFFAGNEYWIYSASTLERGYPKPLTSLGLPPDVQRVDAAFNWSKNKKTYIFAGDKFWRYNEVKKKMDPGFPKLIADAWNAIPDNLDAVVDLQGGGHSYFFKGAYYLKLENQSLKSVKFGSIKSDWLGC
Experimental: MMP-2 (Gelatinase) wird von kultivierten dermalen Fibroblasten in beträchtlichen Mengen in das Kulturmedium abgegeben und ist daher leicht zugänglich. Die sezernierte und inaktive Proform des Enzyms wird durch Behandlung mit organischen Quecksilberverbindungen in die enzymatisch aktive Form überführt.
Hierzu werden humane dermale Fibroblasten nach etablierten Standardmethoden gewonnen und kultiviert. Aus dem konditionierten Zellmedium wird humane MMP-2 durch folgende Methode gewonnen: 500 ml Zellmedium werden 30 min. bei 10 000 g zentrifugiert und der Überstand mit einem Vol. 2-fach Bindungspuffer (40 mM Tris-HCI pH 7,5 , 10 mM CaCl2, 1 M NaCI, 0,2% (v/v) Triton X-100) versetzt. Dazu gibt man 6 ml Gelatine-Agarose, welche mit Bindungspuffer äquilibriert wurde, und schüttelt für 1 Std. auf Eis. Die beladene Gelatine-Agarose wird in eine Säule überführt und mit mindestens 10 Vol. Bindungspuffer proteinfrei gespült. Die Elution der gebundenen MMP-2 erfolgt mit 2 Gelvolumen Bindungspuffer plus 5% (v/v) DMSO. Das Eluat enthält die humane MMP-2 als inaktives Zymogen in stark angereicherter Form. Fremdproteine sind TIMP-2 und Fibronektin; das letztere kann durch eine Gelfiltration an Sephacryl S-200 abgetrennt werden. Laufpuffer ist 100 mM Tris-HCI pH 7,5, 10 mM CaCl2, 100 mM NaCI, 0,05% (v/v) Brij 35. Die inaktive humane MMP-2 wird durch zweistündige Inkubation bei 37 °C in Gegenwart von 1 mM p-Aminophenylmercuric Acetate (APMA) aktiviert. Zur Beseitigung von APMA nach Aktivierung wird die Probe an Sephadex G-25 in Laufpuffer (s.o.) filtriert.
(§1) Durch enzymatische Spaltung des synthetischen Substrates Mca-Pro-Leu-Gly-Leu-Dpa-Ala-Arg-NH2 durch die jeweilige Kollagenase, wird die fluoreszente Gruppe Mca ((7-Methoxycoumarin-4-yl)acetyl) vom internen Quencher Dpa ((N-3-(2,4-dinitrophenyl)-L-2,3-diaminopropienyl) getrennt. Dabei erfolgt eine starke Zunahme der Fluoreszenz im Messansatz, die am Fluorimeter quantifiziert werden kann (λex 328 nm, λem 393 nm) und innerhalb der ersten Minuten linear verläuft. Eine gewisse Spezifität des Tests für Matrix-Metalloproteinasen ergibt sich einerseits aus der Aminosäuresequenz -Pro-Leu-Gly-Leu- im Substrat und andererseits durch die gewählten Inkubationsbedingungen. Matrix-Metalloproteinasen spalten das Substrat an der Bindung Gly-Leu. Gemessen wird die proteolytische Restaktivität vorinkubierter Ansätze von Enzym und Inhibitor, wobei die Substrat- und Enzymkonzentration konstant gehalten und die Inhibitorkonzentration variiert wurde. Es wurden für jeden getesteten Inhibitor drei Messreihen mit unterschiedlicher Substratkonzentration aufgenommen. Aus der zeitabhängigen Fluoreszenzzunahme wird die Enzymaktivität in Fluoreszenzeinheiten pro min berechnet. Die Bestimmung der Ki-Werte erfolgte graphisch nach der Methode von DIXON (1953) durch Auftragung der reziproken Reaktionsgeschwindigkeit 1/v (y-Achse) gegen Inhibitorkonzentration (x-Achse).
(§2) 1984 µl Messpuffer (100mM Tris-HCI pH 7,5, 100 mM NaCI, 10 mM CaCl2, 0,05% Brij 35 bzw. 50 mM MES-NaOH, pH 6.0, 10 mM CaCl2, 100 mM NaCI, 0.05% Brij 35 im Fall der KaDo MMP-3) 2 µl Inhibitor, gelöst in DMSO, bzw. DMSO allein (nichtinhibierender Ansatz) 4 µl Enzym • 5 min. Vorinkubation des Enzym-Inhibitor-Gemischs bei Raumtemperatur unter Rühren • Start der Reaktion mit 10 µl Substrat gelöst in DMSO • Aufzeichnung der zeitabhängigen Fluoreszenzzunahme über 2 - 10 min.

MMP-9 = target: T2, MMP-9 (Homo sapiens, UniProt P14780); assay: as above; assay type: biochemical
T2 construct: Das latente Enzym wird durch 30 - 60 min; Inkubation bei 37°C mit 1/100 Vol. Trypsin (10 mg/ml) aktiviert; from tissue; host or cells: human buffy coat (blood leukocytes)
T2 sequence (P14780 107-707 limits assumed): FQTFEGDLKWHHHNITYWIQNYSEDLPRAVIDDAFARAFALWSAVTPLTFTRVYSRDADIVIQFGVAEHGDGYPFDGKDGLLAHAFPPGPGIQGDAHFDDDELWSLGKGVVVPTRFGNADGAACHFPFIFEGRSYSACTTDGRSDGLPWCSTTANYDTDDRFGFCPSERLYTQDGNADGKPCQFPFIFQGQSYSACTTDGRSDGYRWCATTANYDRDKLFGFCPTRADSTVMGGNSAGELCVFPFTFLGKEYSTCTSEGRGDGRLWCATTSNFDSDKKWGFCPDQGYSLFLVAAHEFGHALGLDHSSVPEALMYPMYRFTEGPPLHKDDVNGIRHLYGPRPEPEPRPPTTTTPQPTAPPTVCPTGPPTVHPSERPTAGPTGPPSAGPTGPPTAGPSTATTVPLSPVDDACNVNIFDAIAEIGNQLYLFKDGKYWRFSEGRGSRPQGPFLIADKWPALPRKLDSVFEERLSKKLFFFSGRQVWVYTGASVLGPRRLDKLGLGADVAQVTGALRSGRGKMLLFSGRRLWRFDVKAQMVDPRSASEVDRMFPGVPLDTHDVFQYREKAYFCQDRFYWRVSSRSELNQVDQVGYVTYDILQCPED
Experimental: Native MMP-9 wurde reproduzierbar und in guter Ausbeute und Reinheit aus humanem Buffy Coat gewonnen. Hierzu wird Buffy Coat mit 10% (v/v) Triton X-100 auf eine Endkonzentration von 0,4% gebracht, 30 min. auf Eis geschüttelt und dann 1 Vol. 2-fach Bindungspuffer (40 mM Tris-HCI pH 7,5, 10 mM CaCl2, 1 M NaCI, 0,2% (v/v) Triton X-100) hinzugefügt und weitere 30 min. auf Eis geschüttelt. Die Lösung wird 15 min. bei 16 000 Upm an einem SS-34 Rotor bei 4°C abzentrifugiert und über Glaswolle filtriert. Das Filtrat wird mit Gelatine-Agarose, welche mit Bindungspuffer äquilibriert wurde, gebatcht und 1 Std. auf Eis geschüttelt. Die beladene Gelatine-Agarose wird in eine Säule überführt und mit mindestens 10 Vol. Bindungspuffer proteinfrei gespült. Die Elution der gebundenen MMP-9 erfolgt mit 2 Gelvolumen Bindungspuffer plus 5% (v/v) DMSO. Das Eluat kann zum Puffer-Austausch und gleichzeitiger Abtrennung geringer Verunreinigungen an MMP-2 über eine Gelfiltration an Sephadex G-75 aufgetrennt werden. Hierzu wird der Puffer I (20 mM Tris-HCI pH 7,5, 5 mM CaCl2, 100 mM NaCI, 0,1% (v/v) Triton X-100) verwendet. Das so gewonnene Eluat enthällt MMP-9 in den drei bekannten Zustandsformen: Monomer, Homodimer, Heterodimer. Die Reinheit des Enzyms beträgt ca. 90%, wobei die restlichen Fremdproteine Fibronektin und äußerst geringe Mengen an TIMP's sind. Das latente Enzym wird durch 30 - 60 min. Inkubation bei 37°C mit 1/100 Vol. Trypsin (10 mg/ml) aktiviert. Trypsin wird durch Zugabe von 1 mM PMSF oder mit einem spezifischen Inhibitor (TKI) gehemmt.
as §1, §2

SMILES | MMP-2 Hemmung (MMP-2; bei 10 µM) [% Hemmung bei 10 µM] | MMP-9 Hemmung (MMP-9; bei 10 µM) [% Hemmung bei 10 µM] | further results
O=c1[nH]c2ccccc2c(=O)n1CC(S)CS (racemic) [Beispiel 1, (R,S)-3-(2,3-Dimercaptopropyl)chinazolin-2,4-(1H,3H)dion] | 70 | 70 | 
O=c1[nH]c2cc(Cl)ccc2c(=O)n1CC(S)CS (racemic) [Beispiel 3, (R,S)-7-Chlor-3-(2,3-dimercaptopropyl)chinazolin-2,4-(1H,3H)dion] | 90 | 83 | 
O=c1[nH]c2ccc(Cl)cc2c(=O)n1CC(S)CS (racemic) [Beispiel 4, (R,S)-6-Chlor-3-(2,3-dimercaptopropyl)chinazolin-2,4-(1H,3H)dion] | 50 | 50 | 
Cc1cccc2[nH]c(=O)n(CC(S)CS)c(=O)c12 (racemic) [Beispiel 5, (R,S)-3-(2,3-Dimercaptopropyl)-5-methyl-chinazolin-2,4-(1H,3H)dion] | 50 | 70 | 
COc1cc2[nH]c(=O)n(CC(S)CS)c(=O)c2cc1OC (racemic) [Beispiel 7, (R,S)-3-(2,3-Dimercaptopropyl)-6,7-dimethoxy-chinazolin-2,4-(1H,3H)dion] |  |  | MMP-2 Hemmung (MMP-2; bei 1 µM): 20% Hemmung bei 1 µM; MMP-9 Hemmung (MMP-9; bei 1 µM): 20% Hemmung bei 1 µM
O=C(NCc1ccccc1)c1ccc2c(=O)n(CC(S)CS)c(=O)[nH]c2c1 (racemic) [Beispiel 8, (R,S)-N-Benzyl-3-(2,3-dimercaptopropyl)-2,4-dioxo-1,2,3,4-tetrahydrochinazolin-7-carboxamide] |  |  | MMP-2 Hemmung (MMP-2; bei 5 µM): 50% Hemmung bei 5µM; MMP-9 Hemmung (MMP-9; bei 5 µM): 30% Hemmung bei 5 µM
O=c1[nH]c2ccsc2c(=O)n1CC(S)CS (racemic) [Beispiel 9, (R,S)-3-(2,3-Dimercaptopropyl)thieno[3,2-d]pyrimidin-2,4(1H,3H)-dion] |  |  | MMP-2 Hemmung (MMP-2; bei 3 µM): 50% Hemmung bei 3 µM; MMP-9 Hemmung (MMP-9; bei 2,5 µM): 50% Hemmung bei 2,5 µM
O=c1[nH]c2sc3c(c2c(=O)n1CC(S)CS)CCCC3 (racemic) [Beispiel 10, (R,S)-3-(2,3-Dimercaptopropyl)-5,6,7,8-tetrahydro[1]benzothieno[2,3-d]pyrimidin-2,4(1H,3H)-dion] | 52 | 68 | 
O=c1[nH]c2sc(-c3ccccc3)cc2c(=O)n1CC(S)CS (racemic) [Beispiel 11, (R,S)-3-(2,3-Dimercaptopropyl)-6-phenylthieno[2,3-d]pyrimidin-2,4(1H,3H)-dion] |  |  | MMP-2 Hemmung (MMP-2; bei 1 µM): 15% Hemmung bei 1 µM; MMP-9 Hemmung (MMP-9; bei 1 µM): 15% Hemmung bei 1 µM
